Experimental data taken from patent US10973863B2, “Method for regulating, preventing and/or treating pulmonary injury” (SINPHAR PHARMACEUTICAL CO., LTD., priority 2017, dated 2021).

Experiments:
Mucin 5AC = assay: Western blot: LPS-induced expression of Mucin 5AC in NCI-H929 cells; assay type: cell-based, human; conditions: 1 μg/mL LPS, 24 hours, vs control group
Source text: As indicated above, the hypersecretion of mucus in airway can be observed in the patients suffering from pulmonary injury-related diseases, such as chronic obstructive pulmonary disease and emphysema, and the mucus hypersecretion is associated with the overexpression of mucins in pulmonary tissue. Symptoms like the increased sputum production will occur in the patients suffering from the mucin hypersecretion in airway, and the increased sputum will accumulate in the airway and lung, thereby making the airway narrow and increasing respiratory resistance. To investigate the effects of active ingredients of FU-LING extract in regulating, preventing, and/or treating the pulmonary injury-related diseases, such as chronic obstructive pulmonary disease and emphysema, a Western blot was conducted to measure the inhibitory rate of active ingredients of FU-LING extract (tumulosic acid and poricoic acid A) on the LPS-induced expression of Mucin 5AC in human lung epithelial NCI-H929 cells.
Human lung epithelial NCI-H929 cells were divided into ten groups and separately cultivated with the following media for 24 hours:
(1) Control group: an epithelial cell growth medium containing […];
(2) Positive control group: an epithelial cell growth medium containing 1 μg/mL LPS and 10 μM Dex;
(3) TA group (including four sub-groups): an epithelial cell growth medium containing […] the tumulosic acid (TA) provided by [preparation example C-1], wherein the tumulosic acid (TA) is present in the four sub-groups at a concentration of 1.56, 3.13, 6.25 and 12.5 μg/mL respectively; and
(4) PAA group (including four sub-groups): an epithelial cell growth medium containing 1 μg/mL LPS the poricoic acid A (PAA) provided by [preparation example C-1], wherein the poricoic acid A (PAA) is present in the four sub-groups at a concentration of 6.25, 12.5, 25 and 50 μg/mL respectively.
(§1) Thereafter, the proteins in the cells of each group were extracted and then subjected to a Western blot to measure the expression level of Mucin 5AC. The relative expression level of Mucin 5AC of each group was calculated by using the results of the control group as a basis (i.e., the expression level of control group was served as 1-fold).

pro-form MMP-9 = assay: Western blot: pro-form MMP-9 expression in LPS-treated NR8383 cells; assay type: cell-based, rat; conditions: 0.01 μg/mL LPS; 12.5 μg/mL; 24 hours; vs control group
Procedure: (§2) Rat alveolar macrophage NR8383 cells were divided into six groups and separately cultivated with the following media for 24 hours: • (1) Control group: a macrophage growth medium containing 0.01 μg/mL LPS; • (2) Positive control group: a macrophage growth medium containing 0.01 μg/mL LPS and 1 μM Dex; and • (3) Extract A group (including four sub-groups): a macrophage growth medium containing 0.01 μg/mL LPS and the extract A provided by [preparation example A-2-2], wherein the extract A is present in the four sub-groups at a concentration of 6.25, 12.5, 25 and 50 μg/mL respectively.
as §1, with “pro-form MMP-9 (i.e., the zymogen form of MMP-9), active-form MMP-9 and MMP-12.” for “Mucin 5AC.”, “pro-form MMP-9, active-form MMP-9 and MMP-12” for “Mucin 5AC”
(§3) Rat alveolar macrophage NR8383 cells were divided into ten groups and separately cultivated with the following media for 24 hours:
(§4) (1) Control group: a macrophage growth medium containing 0.01 μg/mL LPS;
(§5) (2) Positive control group: a macrophage growth medium containing 0.01 μg/mL LPS and 1 μM Dex; […]

MMP-9 = assay: Gelatin zymography: LPS-activated active expression of MMP-9 in NR8383 cells; assay type: cell-based, rat; conditions: Table 4, LPS 1 μg/mL, 24 hours
Source text: As indicated above, when an inflammatory response occurs in animal's pulmonary tissue, the active inflammatory cells will secret MMPs that will destroy the pulmonary tissue structure, cause more serious pulmonary injury, and lead to the decrement in or the loss of pulmonary functions. […]
Thereafter, the medium of each group was collected and respectively subjected to the following procedures. A 10% polyacrylamide gel containing 0.2% gelatin was used to carry out the sodium dodecyl sulfate polyacrylamide gel electrophoresis (SDS-PAGE). After the electrophoresis was completed, the gel was sequentially soaked in 2.5% Triton X-100 solution for 90 minutes to remove SDS, soaked in distillation-distillation water (ddH2O) for 30 minutes, and placed in a reaction solution (50 mM Tris-HCl buffer containing 10 mM CaCl2 and 0.02% NaN3) at a temperature of 37° C. for 18 hours. After the foregoing reaction was completed, the gel was stained by a Coomassie blue staining solution, and the image of stained gel was taken and subjected to an image analysis. The image intensity (the image intensity was calculated based on the size of area and the shade of color) of highlight band (i.e., the gelatin in this area was degraded by MMPs, wherein the area locating around 95 kD molecular weight) on the gel of each group can reflect the active expression of MMP-9 of rat alveolar macrophage NR8383 cells under different conditions (the relative active expression of MMP-9 was calculated by serving the results of the blank group as 0% and serving that of the control group as 100%).
Rat alveolar macrophage NR8383 cells were divided into twenty-eight groups and separately cultivated with the following media for 24 hours: • (1) Blank group: a macrophage growth medium; • (2) Control group: a macrophage growth medium containing 1 μg/mL LPS; • (3) Positive control group: a macrophage growth medium containing 1 μg/mL LPS and 5 μM Prednisolone (a type of corticosteroid; abbreviated as “Pred”; purchased from Sigma-Aldrich); • (4) Extract C (including five sub-groups): a macrophage growth medium containing 1 μg/mL LPS and the extract C provided by [preparation example A-3-2], wherein the extract C is present in the five sub-groups at a concentration of […] respectively; • (5) Extract D (including five sub-groups): a macrophage growth medium containing 1 μg/mL UPS and the extract D provided by [preparation example A-4-2], wherein the extract D is present in the five sub-groups at a concentration of 0.78, 1.56, 3.13, 6.25 and 12.5 respectively; • (6) Extract E (including five sub-groups): a macrophage growth medium containing 1 μg/mL LPS and the extract E provided from [preparation example A-4-3], wherein the extract E is present in the five sub-groups at a concentration of 0.78, 1.56, 3.13, […], and 12.5 respectively; • (7) DATA group (including five sub-groups): a macrophage growth medium containing 1 μg/mL LPS and the dehydrotrametenolic acid (DTTA) provided by [preparation example C-1], wherein the dehydrotrametenolic acid (DTTA) is present in the five sub-groups at a concentration of 0.39, 0.78, 1.56, 3.13 and 6.25 μg/mL respectively; and • (8) PAA group (including live sub-groups): a macrophage growth medium containing 1 μg/mL LPS and the poricoic acid A (PAA) provided from [preparation example C-1], wherein the poricoic acid A (PAA) is present in the five sub-groups at a concentration of 6.25, 12.5, 25, 50 and 100 respectively.
Thereafter, the medium of each group was collected and analyzed by the analyzing procedures same as that of (1-1).

active-form MMP-9 = assay: Western blot: active-form MMP-9 expression in LPS-treated NR8383 cells; assay type: cell-based, rat; conditions: 0.01 μg/mL LPS; 12.5 μg/mL; 24 hours; vs control group
Procedure: as §2
as §1, with “pro-form MMP-9 (i.e., the zymogen form of MMP-9), active-form MMP-9 and MMP-12.” for “Mucin 5AC.”, “pro-form MMP-9, active-form MMP-9 and MMP-12” for “Mucin 5AC”
as §3, §4, §5

MMP-12 = assay: Western blot: MMP-12 expression in LPS-treated NR8383 cells; assay type: cell-based, rat; conditions: 0.01 μg/mL LPS; 12.5 μg/mL; 24 hours; vs control group
Procedure: as §2
as §1, with “pro-form MMP-9 (i.e., the zymogen form of MMP-9), active-form MMP-9 and MMP-12.” for “Mucin 5AC.”, “pro-form MMP-9, active-form MMP-9 and MMP-12” for “Mucin 5AC”
as §3, §4, §5

Structure (SMILES): C=C(CC[C@@H](C(=O)O)[C@H]1[C@H](O)C[C@@]2(C)C3=C(CC[C@]12C)[C@@]1(C)CC[C@H](O)C(C)(C)[C@@H]1CC3)C(C)C [TA, tumulosic acid]
- Inhibitory rate on LPS-induced expression of Mucin 5AC (Mucin 5AC; 1.56 μg/mL (low-dose)): up to 75%
- Inhibitory rate on LPS-induced expression of Mucin 5AC (Mucin 5AC; 12.5 μg/mL (high-dose)): ≤ 81%
- Inhibitory rate on the expression level of pro-form MMP-9 (pro-form MMP-9): 53%
- Relative active expression of MMP-9 (%) (MMP-9; 3.13 μg/mL): 60.6%
- Relative active expression of MMP-9 (%) (MMP-9; 6.25 μg/mL): 28.4%
- Relative active expression of MMP-9 (%) (MMP-9; 12.5 μg/mL): 0%
- Inhibitory rate on the expression level of active-form MMP-9 (active-form MMP-9): 100%
- Inhibitory rate on the expression level of MMP-12 (MMP-12): 45%
